These are literature values, as cited in US7288142B2, “Black dyes composition for ink-jet inks” (Everlight USA, Inc., priority 2005, dated 2007).

For data set [1] the following is noted: as ink-jet black dye, prior art.
For data set [2] the following is noted: as ink-jet black dye, prior art. This is another data set of the same source.

Turning to `Nc1cc2c(O)c(N=Nc3ccc(N=Nc4ccc(S(=O)(=O)[O-])cc4)c4ccc(S(=O)(=O)[O-])cc34)c(S(=O)(=O)[O-])cc2cc1S(=O)(=O)[O-].[Na+].[Na+].[Na+].[Na+]` [C.I. Food Black 2], in data set [1], the light-fastness entry was “poor”. On to C.I. Direct Black 168, for which the solubility result in data set [2] is “low”. The light-fastness entry in data set [1] is “good”.
